Literature values, collected in patent US20140017308A1, “COMPOSITIONS COMPRISING A FATTY ACID OIL MIXTURE, A FREE FATTY ACID, AND A STATIN” (Pronova Biopharma Norge AS, priority 2010, published 2014).

conditions: in vivo

SMILES | half-life
CC[C@H](C)C(=O)O[C@H]1C[C@H](O)C=C2C=C[C@H](C)[C@H](CC[C@@H](O)C[C@@H](O)CC(=O)O)[C@H]21 [pravastatin] | about 0.8 hours
CC(C)c1nc(N(C)S(C)(=O)=O)nc(-c2ccc(F)cc2)c1/C=C/[C@@H](O)C[C@@H](O)CC(=O)O [rosuvastatin] | about 20 hours
CCC(C)(C)C(=O)O[C@H]1C[C@@H](C)C=C2C=C[C@H](C)[C@H](CC[C@@H]3C[C@@H](O)CC(=O)O3)[C@H]21 [simvastatin] | 2 to 3 h
